“Also recorded” adds a separate entry of the source.
Assays:
protein carbonyls = test: Protein carbonyl assay, i.c.v Abeta mouse model; format: in vivo, C57/BL6 mice
Procedure: (§1) Eight-week old Wild type C57/BL6 mice were treated i.p. with sulfanegen at 50 and 100 mg/kg dose during the entire duration of experiment. The mice were injected with intracerebroventricular (i.c.v) Aβ1-42 on day 3 after initiation of drug treatment (1 nmol/mouse). Behavioral test (T-maze) was conducted 6 days after Aβ1-42 injection, which was followed by euthanization on day 8. Biochemical analysis of the collected brain tissues was conducted using ELISA method for quantitation of Aβ1-42, and immunohistochemical analysis for GFAP (inflammatory marker). The brain tissues were also analyzed for oxidative stress markers (GSH assay, see Example 5; and protein carbonyls, see Example 6). • Groups: • Saline control N=12, (N=5 study 2; N=7 study 3) • Abeta control N=15, (N=7 study 2; N=8 study 3) • Sulfanegen, 50 mg/kg, N=7 • Sulfanegen, 100 mg/kg, N=7
The protein carbonyl content is used as a marker of protein oxidation in the i.c.v Abeta mouse model (see Example 1). The amount of protein-hydrozone produced is quantified spectrophotometrically by Protein Carbonyl Colorimetric assay kit (Cayman Chemical, Ann Arbor, MI). 100 μl of sample was transferred into two tubes, one containing 400 μl of DNPH and the other tube containing 400 μl of 2.5 M HCl. […] The absorbance was measured at 385 nm using Spectra Max M5 microplate reader. […]

H2S = test: Zn-agar entrapment H2S measurement in cell culture; format: cell-based
Procedure: To sterilized agar solution (1% w/v) was added 45 mM Zn Acetate and 4.5 mM NaOH (both prepared in sterile water). The solution was then applied to the non-adherent surface of the empty flasks and allowed to solidify. Cells were seeded in T-25 flask at 1 million cells/flask overnight. Cells were treated with sulfanegen at 0-500 μM concentrations and incubated for 6 hours. After the incubation period, the media was removed and 2 ml N,N-dimethyl-p-phenylenediamine chloride was added to the agar layer and incubated at RT for 10 mins. This was followed by addition of 400 μL of ferrous chloride and incubation for 20 minutes. The solution was then aliquoted into 96-well plate and absorbance was measured at 670 nm. The release of H2S was measured using a standard curve generated with NaSH under similar experimental conditions (incubation with NaSH was done for 1 hr).

[1] = Brain permeability: brain and plasma levels after i.p. dosing (LC-MS/MS); format: in vivo, mouse; conditions: 50 mg/kg i.p.
Procedure: To ascertain the distribution of sulfanegen to the brain, plasma and brain samples were harvested from intraperitoneally treated animal groups and analyzed via LC-MS/MS. A saline solution of sulfanegen was injected into the mouse peritoneum at a dose of 50 mg/kg. Specifically, samples were collected at 0.25, 0.5, 1, 2, and 4 h after the drug administration. […] Samples were immediately centrifuged at 3000 rpm for 10 min at 4° C., and the separated top plasma layer was transferred into a new tube. Blood samples were stored at −80° C. until LC-MS/MS analysis. For brain samples, brain tissue was extracted from the animal and washed with copious volumes of ice-cold D-PBS for removal of blood from the sample. The brain samples were homogenized by adding 1:5 (w/v) of ice-cold D-PBS into the tube and using a mechanical homogenizer on them. Homogenized brain samples were stored at −80° C.

[2] = test system: TBARS (lipid peroxidation); test: Lipid peroxidation (TBARS) assay, i.c.v Abeta mouse model; format: in vivo, C57/BL6 mice; conditions: 50 and 100 mg/Kg
Procedure: as §1
The extent of lipid peroxidation, in the i.c.v Abeta mouse model (see Example 1), was correlated to the levels of thiobarbituric (TBA) acid-reactive entities (TBARS assay). Homogenized brains were exposed to TBA-trichloroacetic acid (TCA)-chloridic acid reagent (HCl; 0.37% TBA, 0.25 N HCl, and 15% TCA) (1:1:1, 2 mL) and incubated for 15 minutes at […]. […] Total protein was determined through the BCA protein assay. […]

TNFα = TNFα ELISA of brain tissue, i.c.v Aβ1-42 mice; format: in vivo, C57/BL6 mice; conditions: 50 and 100 mg/kg i.p.; no difference between doses
Procedure: as §1
TNFα ELISA kit (BMS607HS, invitrogen) was used. Brain tissue samples were assayed in duplicate. Briefly, the strips provided in the kit were washed with 400 μL wash buffer (lx) twice. 50 μL of brain homogenates or standards were added to 50 μL sample diluent (PBS) in each well. […] The samples were read at 450 nm. Quantification of TNFα in each well was conducted using the standard curve and was normalized to the weight of brain tissue.

[3] = Tolerability in i.c.v Aβ1-42 injected nontransgenic mice; format: in vivo, C57/BL6 mice
Procedure: as §1

O=C(O)C1(O)CSC(O)(C(=O)O)CS1 (stereo not drawn) [sulfanegen]
protein carbonyl levels in brain (protein carbonyls; 50 mg/kg): significantly reduced | protein carbonyl levels (legend of FIGS. 8A-8C) (protein carbonyls; 50 or 100 mg/Kg): significantly reduced | H2S release (H2S; 500 μM as compared to 250 μM, 6 h): decrease | H2S release (H2S; up to 250 μM at 6 h, vs vehicle control): dose-dependent increase | crossing of the blood brain barrier (BBB) [1]: able to cross the blood brain barrier | AUC, brain ([1]; samples 0.25-4 h): 51.495 µM·h | Kp ([1]; mouse, brain/plasma, intraperitoneal, read-out: B/P Ratio (Brain-Plasma ratio)): 0.751 | AUC ([1]; mouse, plasma, ip, samples 0.25-4 h): 68.6 µM·h | TBARS (lipid peroxidation) levels in brain [2]: significantly reduced | brain TNFα level (TNFα): significant decrease; also recorded: significant difference | tolerability ([3]; 50 mg/kg i.p.): well tolerated | mice that died during the experiment ([3]; 100 mg/kg i.p.): Two mice (out of 7) | toxicity: liver and kidney enzymes ([3]; 100 mg/kg, total N=8/group): elevations in liver and kidney enzymes in 2 animals | body weights ([3]; 50 and 100 mg/kg i.p., compared to Aβ1-42-only control group): No marked decrease or increase in weights | other signs of distress ([3]; both tested doses (50 and 100 mg/kg i.p.)): No other signs of distress

Source: patent US11925623B2 (priority 2020, dated 2024)
